Data on one compound can be found in paper PMC4979877 (2016).

The assay has as its system non-cognate duplex (DNA, duplex) GGGTGAGGAGGAGGGAGATCGGTC/TGACCGATCTCCCTCCTCCTCACCC
The assay is described as follows: fluorescence titration. Particulars: 0.025 M Tris-HCl, pH 7.5, room temperature; probe 12 µM; fluorescence only 1.5-fold up.

SMILES strings stand for the structures.

Turning to `CN(C)CCCNC(=O)CCNC(=O)c1cc(NC(=O)c2cc(NC(=O)c3cc(NC(=O)c4cc(NC(=O)C(N)CCNC(=O)c5cc(NC(=O)c6cc(NC(=O)c7cc(NC(=O)c8nc(NC(=O)CCCNC(=O)CCc9cn(-c%10cc%11ccc(O)cc%11oc%10=O)nn9)cn8C)cn7C)cn6C)cn5C)cn4C)cn3C)cn2C)cn1C` (stereo not shown), the binding result is “weak”.
